Results on ten compounds are retold here after patent US10342796B2, “Acrylanilide derivative, preparation method, and applications thereof in pharmacy” (Ancureall Pharmaceutical (Shanghai) Co., Ltd., priority 2015, dated 2019).

What all share (assay): Growth inhibition GI50 in vitro (CCK8/MTT, 72 h)
The test system of assay [1] is HCC1954 (Her2 amp). The format is cell-based. To be noted: Homo sapiens, HCC1954, EGFR wt.
Assay [2] deals with ZR-75-30 (Her2 amp). In kind it is cell-based. To be noted: Homo sapiens, ZR-75-30, EGFR wt.
Assay [3] deals with H2170 (Her2 amp). In kind it is cell-based. To be noted: Homo sapiens, NCI-H2170, H2170, EGFR wt.
In assay [4] the test system is Ramos (BTK). In kind it is cell-based, human. To be noted: for GI50: Homo sapiens, Ramos, BTK; for inhibition effects: BTK+ Ramos cells. The method, then: RAMOS is human B lymphocytic leukemia cell line positively expressing BTK. It was cultured with 1×RPMI1640 complete medium (supplement with 10% FBS).
(§1) The suspension cells were collected by centrifugation. The supernatant was discard and the cell pellet was resuspended and counted. Different cell concentrations (5˜10×10^4 cells/mL) were prepared according to the growth cycle of each cell line and then seeded on a 96-well plate (Corning), 100 μL/well. The cells were incubated over night at 37° C., 5% CO2. The compounds were added to the cells on the second day with 2 wells in parallel. The final concentration of organic solvent shall not exceed 1%. The cells were continually incubated for 72 h, and then subjected to MTT assay.
(§2) The present compounds and the reference compounds were dissolved with DMSO (Sigma), respectively. […] The storage concentration of compounds was 10 mM and kept at −20° C. They were diluted by 2 times or 10 times with serial dilution before using.
(§3) Dojindo CCK8 reagent kit was used as MTT assay. […] FC meter was used as microplate reader.
(§4) Adherent cell culture medium was discard and immediately replaced with fresh prepared medium which contains 10% CCK8 reagent (100 μL/well). For the suspension cells, CCK8 was directly added to 10% of the final concentration. The cells were continually incubated for 1˜4 h. When the color of control wells turned to dark yellow, the absorption value was measured at OD450 nm. The cell growth rate was calculated according to the following formula: cell growth rate (%)=100*(T−T0)/(C−T0), T=optical density of drug treatment cell well—optical density of blank control well; T0=optical density of cell well before drug treatment—optical density of blank control well; C=optical density of cell well of solvent control group—optical density of blank control well. […] The experiment was independently repeated 1˜3 times, and subject to biological statistical analysis.
(§5) Growth inhibition assay was conducted in the cell lines shown Table 14 with the different oncogene mutations. Each compound started at 1000 nM as an initial concentration and was diluted by 2 times with serial dilution to 0.03 nM.

The test system of assay [5] is K562 (BCR-ABL). In kind it is cell-based. To be noted: Homo sapiens. The protocol:
Human leukemia cell line K562 (expressing BCR-ABL fusion protein) (ATCC) was cultured with 1×RPMI1640 complete medium (supplement with 10% FBS).
as §1, §2, §3, §4, §5

The subject of assay [6] is H1993 (Met amp). In kind it is cell-based. To be noted: Homo sapiens, NCI-H1993, H1993, EGFR wt. The method, then: (§6) Human gastric cancer cell line MKN-45 (ATCC) and NSCLC cell line NCI-H1993 (ATCC) were cultured with 1×RPMI1640 complete medium which was supplement with 10% FBS, respectively.
as §1, §2, §3, §4, §5

The subject of assay [7] is MKN-45 (Met amp). In kind it is cell-based. To be noted: Homo sapiens, MKN-45, EGFR wt. The protocol:
as §6, §1, §2, §3, §4, §5

Assay [8] has as its system H1581 (FGFR1 amp). The format is cell-based. To be noted: Homo sapiens, NCI-H1581, H1581, EGFR wt. The protocol:
(§7) Human NSCLC cell line NCI-H1581(ATCC) contains FGFR1 gene amplification and high expression. Human gastric cancer cell line SNU-16(ATCC) contains FGFR2 gene amplification and high expression. They were cultured with 1×RPMI1640 complete medium (10% FBS), respectively.
as §1, §2, §3, §4, §5

The subject of assay [9] is SNU-16 (FGFR2 amp). The format is cell-based. To be noted: Homo sapiens, SNU-16, EGFR wt. The method, then:
as §7, §1, §2, §3, §4, §5

In assay [10] the test system is H2228 (EML4-ALK). In kind it is cell-based. To be noted: Homo sapiens, NCI-H2228, H2228, EGFR wt.

For the compound `C=CC(=O)Nc1cc(Nc2nccc(Nc3cccc(Cl)c3)n2)c(OC)cc1N(C)CCN(C)C` [Compound 2, N-(5-(4-(3-chloro-phenylamino)-pyrimidin-2-ylamino)-2-(2-(dimethylamino-ethyl)-methyl-amino)-4-methoxyl-phenyl)-acrylamide], the 50% growth inhibitory concentration (GI50) is 375 nM in [1]; 6 nM in [2]; 12.6 nM in [3]; 234 nM in [4]; over 1000 nM in assay [5]; over 1000 nM in assay [6]. The GI50 was over 1000 nM in assay [7], over 1000 nM in assay [8], over 1000 nM in [9] and over 500 nM in [10].
For `C=CC(=O)Nc1cc(Nc2nccc(-n3cnc4ccccc43)n2)c(OC)cc1N(C)CCN(C)C` [Compound 106], the concentration for 50% growth inhibition (GI50) in [1] was 375 nM; in assay [2] it was 12 nM; in assay [3], 9.4 nM; in assay [4], 234 nM; in assay [5] it was over 1000 nM; in assay [6] it was over 1000 nM. Also, the concentration for 50% growth inhibition (GI50) in assay [7] is over 1000 nM; in [8], over 1000 nM; in assay [9] it was over 1000 nM; in assay [10], over 500 nM.
`C=CC(=O)Nc1cc(Nc2ncc(Cl)c(Nc3ccc(OCc4ccccn4)c(Cl)c3)n2)c(OC)cc1N(C)CCN(C)C` [Compound 19, N-(5-(5-chloro-4-(3-chloro-4-(pyridin-2-methoxyl)phenylamino)-pyrimidin-2-ylamino)-2-((2-(dimethylamino)ethyl)(methyl)amino)-4-methoxyl-phenyl)-acrylamide]: the GI50 is 312 nM in [1]; 2.1 nM in assay [2]; 14.6 nM in [3]; over 1000 nM in assay [5]; over 1000 nM in [6]; 500 nM in assay [7]. Also, the GI50 in assay [8] was over 1000 nM; in assay [9], over 1000 nM; in [10] it was over 500 nM.
On to `C=CC(=O)Nc1cc(Nc2cc(Nc3ccc(F)c(Cl)c3)ncn2)c(OC)cc1N1CCN(C2CCN(C)CC2)CC1` [Compound 147, N-(5-(6-(3-chloro-4-fluoro-phenylamino)-pyrimidin-4-ylamino)-4-methoxyl-2-(4-(1-methylpiperidin-4-yl)-piperazin-1-yl)-phenyl)-acrylamide], for which the GI50 is 26.5 nM in [1]; 1.5 nM in assay [2]; 4.8 nM in assay [3]; 46.8 nM in [4]; over 1000 nM in assay [5]; over 1000 nM in [6]. Also, the GI50 in assay [7] was over 1000 nM; in assay [8], over 1000 nM; in assay [9], over 1000 nM; in assay [10] it was over 500 nM.
For the compound `C=CC(=O)Nc1cc(Nc2cc(Nc3ccc(F)c(Cl)c3)ncn2)c(OC)cc1N(C)CCN(C)C` [Compound 140, N-(5-(6-(3-chloro-4-fluoro-phenylamino)-pyrimidin-4-ylamino)-2-((2-dimethylamino-ethyl)-methyl-amino)-4-methoxyl-phenyl)-acrylamide], the concentration for 50% growth inhibition (GI50) in assay [1] is 26.5 nM; in [2], 1.5 nM; in [3], 4.8 nM; in assay [4], 58.6 nM; in [5], over 1000 nM; in [6] it was over 1000 nM. Further, the 50% growth inhibitory concentration (GI50) in assay [7] was over 1000 nM; in assay [8] it was over 1000 nM; in assay [9], over 1000 nM; in assay [10], over 500 nM. In addition, in assay [4], the “inhibition effects” value is “moderate inhibition effects”.
`C=CC(=O)Nc1cc(Nc2cc(-c3cn(C(C)C)c4ccccc34)ncn2)c(OC)cc1N(C)CCN(C)C` [Compound 183]: the concentration for 50% growth inhibition (GI50) was 156 nM in assay [1]; 6 nM in [2]; 12.5 nM in assay [3]; 78.1 nM in assay [4]; over 1000 nM in [5]; over 1000 nM in assay [6]. The GI50 in assay [7] was 500 nM; in assay [8], over 1000 nM; in [9] it was over 1000 nM; in assay [10], over 500 nM. Further, in [4], the “inhibition effects” value is recorded as “moderate inhibition effects”.
`C=CC(=O)Nc1cc(Nc2ncnc(Nc3cccc(F)c3)n2)c(OC)cc1N(C)CCN(C)C` [Compound 114, N-(5-(4-(3-fluoro-phenylamino)-[1,3,5]triazin-2-ylamino)-2-((2-dimethylamino-ethyl)-methyl-amino)-4-methoxyl-phenyl)-acrylamide]: the 50% growth inhibitory concentration (GI50) is 37.5 nM in assay [1]; 1.1 nM in assay [2]; 4.8 nM in assay [3]; 96.6 nM in assay [4]; over 1000 nM in [5]; over 1000 nM in [6]. The GI50 in assay [7] is 465 nM; in assay [8] it was over 1000 nM; in assay [9], over 1000 nM; in assay [10] it was over 500 nM. Further, the “inhibition effects” value in assay [4] is given as “moderate inhibition effects”.
Consider `C=CC(=O)Nc1cc(Nc2nccc(-c3cn(C)c4ccccc34)n2)c(OC)cc1N(C)CCN(C)C` [AZD9291, reference compound], for which the GI50 in [1] is over 1000 nM; in assay [2], 31 nM; in assay [3], 117 nM; in assay [4], 937 nM; in assay [5] it was over 1000 nM; in assay [6], over 1000 nM. In addition, the GI50 in assay [7] was over 1000 nM; in assay [8], over 1000 nM; in assay [9], over 1000 nM; in assay [10], over 500 nM.
For the compound `C=CC(=O)Nc1cc(Nc2nccc(Nc3ccc(OCc4ccccn4)c(Cl)c3)n2)c(OC)cc1N(C)CCN(C)C` [Compound 18, N-(5-(4-(3-chloro-4-(pyridin-2-methoxyl)phenylamino)pyrimidin-2-ylamino)-2-((2-(dimethylamino)ethyl)(methyl)amino)-4-methoxyl-phenyl)-acrylamide], the GI50 in assay [1] is 312 nM; in [2] it was 2.1 nM; in [3], 19.5 nM; in [4] it was 937 nM; in [5], over 1000 nM; in assay [6], over 1000 nM. The GI50 in assay [7] is over 1000 nM; in [8], over 1000 nM; in [9] it was over 1000 nM; in assay [10], over 500 nM.
On to `C=CC(=O)Nc1cc(Nc2ncnc(Nc3cccc(Br)c3)n2)c(OC)cc1N1CCC(N2CCCC2)CC1` [Compound 118], for which the GI50 was 37.5 nM in assay [1]; 2.6 nM in [2]; 6.8 nM in assay [3]; 148 nM in assay [4]; over 1000 nM in assay [5]; 465 nM in assay [7]. Further, the GI50 is over 1000 nM in assay [8], over 1000 nM in assay [9] and over 500 nM in [10]. Also, in assay [4], the “inhibition effects” value is “moderate inhibition effects”.
